# Data reported in ChEMBL document CHEMBL3988442, “University of Dundee, Small-Polar-MMV Screening Library” (2021).
# Where “and” joins values, the source holds several entries; their conditions need not be identical. Identical values can stand only once.
# What was measured:
# Histidine--tRNA ligase = target: T1, Histidine--tRNA ligase (Leishmania infantum, UniProt A4I591); experiment: Leishmania infantum Histidine tRNA synthetase (LdHisRS); type: functional
# T1 sequence (A4I591 whole entry): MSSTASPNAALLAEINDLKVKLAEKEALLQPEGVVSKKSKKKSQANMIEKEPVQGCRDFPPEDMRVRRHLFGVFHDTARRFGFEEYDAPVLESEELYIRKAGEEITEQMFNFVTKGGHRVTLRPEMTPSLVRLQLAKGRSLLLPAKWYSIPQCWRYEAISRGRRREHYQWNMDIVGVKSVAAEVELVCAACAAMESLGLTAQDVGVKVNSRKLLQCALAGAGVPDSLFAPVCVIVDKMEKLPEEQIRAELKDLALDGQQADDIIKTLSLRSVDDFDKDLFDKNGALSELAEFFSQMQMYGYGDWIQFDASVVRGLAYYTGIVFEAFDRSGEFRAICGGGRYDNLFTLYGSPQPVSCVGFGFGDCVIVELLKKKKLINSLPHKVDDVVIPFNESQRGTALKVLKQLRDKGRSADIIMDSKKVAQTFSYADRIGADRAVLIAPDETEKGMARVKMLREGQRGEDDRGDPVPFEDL
# [1] = microbe, parasite or virus in culture; settings: Mycobacterium tuberculosis, 96 h, read-out: pIC50 (converted)
# [2] = microbe, parasite or virus in culture; settings: Mycobacterium tuberculosis, 72 h, read-out: pIC50 (converted)
Compound,IC50 (Histidine--tRNA ligase),IC50 [1] [µM],IC50 [2] [µM]
Cc1nc(CN2CCc3nc(NC(C)C)nc(C)c3C2)cs1,64.5 µM and 57.7 µM,> 50.1,> 50.1
CN(CC1CCN(c2ccccc2)C1)c1ccc(Cn2ccnc2)cn1 (stereo not given),91.9 µM and 98.7 µM,27.4,27.7
Cc1nc(CN2CCc3nc(N4CCCC4)nc(NC(C)C)c3C2)cs1,14.7 µM and 12.1 µM,25.4,41.6
CSc1ccc(C(CN)N2CCc3sccc3C2)cc1 (stereo not given),73.8 µM and 73.2 µM,24.1,27.4
c1ccc2c(c1)CCN(c1nc(-c3ccncc3)nc3c1CCNC3)C2,9.69 µM and 11.1 µM,> 50.1,49.7
c1cncc(-c2ccc3c(c2)CCC32CCN(Cc3nccs3)CC2)c1,75.2 µM and 52.4 µM,36.3,36.1
CCCN1C[C@H]2CC[C@@H]1CN(Cc1ccc(-n3cccn3)cc1)C2,33.2 µM and 35 µM,21.4,4.84
c1ccc(-c2cc(CN3C[C@@H]4CC[C@H](C3)N(CC3CCC3)C4)on2)cc1,32.5 µM and 36.9 µM,13.3,8.42
Fc1cccc(N2C[C@H]3CCN(c4cccnc4)C[C@H]3C2)c1,40.6 µM and 35.1 µM,> 50.1,45.2
Cc1ccc(S(=O)(=O)N2CCc3nc(C4CCNCC4)ncc3C2)cc1,> 100 µM and 97.1 µM,6.39,> 50.1
COc1cccn(CC(=O)N(C)CCC2CCOCC2)c1=O,> 100 µM,> 50.1,–
c1ccc(Oc2cccc(OC34CCCN(CC3)C4)c2)cc1 (stereo not given),53.2 µM and 46.4 µM,15.9,18.1
CN(C)c1nc2c(c(N3CCc4ccccc4C3)n1)CCNC2,28.8 µM and 22.8 µM,> 50.1,31.3
CC(=O)NCC1CCN(c2cc(C)nc(-c3ccncc3)n2)CC1,64 µM and > 100 µM,–,–
CC(C(=O)NCc1ccc(N2CCNC(=O)C2)cc1)n1cncn1 (stereo not given),60.1 µM and 77.1 µM,–,–
Cc1csc(N2CCN(C(=O)CCC(=O)c3ccc(C)s3)CC2)n1,> 100 µM,–,–
CC(C)C(C)NC(=O)Nc1cccn(C)c1=O (stereo not given),65.4 µM and 53.4 µM,–,–
CC(C)[C@H](NS(C)(=O)=O)C(=O)NCc1cc(-c2ccco2)n[nH]1,87.9 µM and 82 µM,–,–
Clc1cc(NCc2ccncc2)nc2[nH]ccc12,18.7 µM and 17.4 µM,–,–
Cn1cccc(NC(=O)NCc2cccc(CO)c2)c1=O,> 100 µM,–,–
CC(C)N(C)S(=O)(=O)c1ccc2c(c1)CCN(C(=O)c1ccccn1)C2,37 µM and 42.8 µM,–,–
Cc1cc(C(=O)N2CC[C@@H](N(C)C)[C@@H]2Cc2ccccc2)no1,> 100 µM,–,–
Cn1cc(NC(=O)Nc2cccc3cccnc23)ccc1=O,2.58 µM and 4.22 µM,–,–
Cc1cc(CNc2ccc3nc(C)sc3c2)no1,> 100 µM,–,–
CN(C(=O)CN1CCc2nn(C)c(=O)cc2C1)c1nccs1,95.3 µM and > 100 µM,–,–
CC(=O)N1CCN(C(=O)CNc2ccc3ncsc3c2)CC1,6.78 µM and 9.49 µM,–,–
CCCn1nc2c(cc1=O)CN(Cc1nc(CCOC)no1)CC2,57.7 µM and 67.2 µM,–,–

Compound,IC50 (Histidine--tRNA ligase),IC50 [1] [µM],IC50 [2] [µM]
O=c1c2cnc(N3CCOCC3)nc2ccn1-c1ccccc1,> 100 µM,–,–
Cc1ccccc1CC(C)(C)NC(=O)c1cccc(OCC(N)=O)c1,77.2 µM and > 100 µM,–,–
Cc1cn2nc(N(C)C3CCCN(c4cccnn4)C3)sc2n1 (stereo not given),29.6 µM and 43.5 µM,–,–
Cn1ncc(-c2cc(-c3cccc(O)c3)nc(N)c2C#N)c1C1CC1,61.2 µM and 76.8 µM,–,–
O=C(Cc1cnc(-c2c(Cl)cccc2Cl)s1)N1CCOCC1,> 100 µM,–,–
c1cc2nccc(CC3CCCN(Cc4ncc[nH]4)CC3)c2cn1 (stereo not given),> 100 µM,–,–
O=C(C1=NN(Cc2ccccc2)c2ccccc2S1(=O)=O)N1CCCC1,40.6 µM and 39.5 µM,–,–
Cn1ccnc1-c1cn(CCCc2csc(N)n2)nn1,> 100 µM,–,–
Cc1ccsc1C(=O)Nc1cc(Br)c(=O)n(C)c1,30.3 µM and 25.3 µM,–,–
CCC1=NOC(CNCc2cnc(-c3ccccc3C)s2)C1 (stereo not given),> 100 µM,–,–
COc1ccc(C(C)=O)cc1CN1CCn2cccc2C1C (stereo not given),31.8 µM and 50.6 µM,–,–
CCn1nnc2c1C(COCC(=O)N(C)C)CN(Cc1ccco1)C2 (stereo not given),> 100 µM,–,–
CCC(C#N)NC(=O)CCCOc1cccc(C(C)=O)c1 (stereo not given),> 100 µM,–,–
CCCn1nc2c(cc1=O)CN(Cc1cc(C)on1)CC2,80.7 µM and 80.3 µM,–,–
CCN(C(=O)c1nc2c(s1)CCCN2Cc1ccccc1)C(C)C,22.3 µM and 17.3 µM,–,–
CC(C(=O)Nc1ccc(N2CCCC2)nc1)n1cncn1 (stereo not given),> 100 µM,–,–
CCCn1nc2c(cc1=O)CN(Cc1cc(C)no1)CC2,24.8 µM and 27.4 µM,–,–
COc1ccc2c(c1)CC(NCc1cccc(OCC(N)=O)c1)CC2 (stereo not given),17 µM and 23.6 µM,–,–
CC(C)c1cc(NC(=O)CN2CCc3nn(C)c(=O)cc3C2)on1,> 100 µM,–,–
COc1ccc(C(NCc2cccc(O)c2)C2CC2)cc1 (stereo not given),26.9 µM and 20.1 µM,–,–
CC1=Nc2c(c(=O)[nH]n2C(C)C)C(c2ccc3c(c2)n(C)c(=O)n3C)S1 (stereo not given),> 100 µM,–,–
O=C(Nc1ccc(=O)n(Cc2ccccc2Cl)c1)C1CC1,6.94 µM and 5.93 µM,–,–
CN(CCOc1ccccc1)C(=O)Nc1cccn(C)c1=O,15 µM and 15.4 µM,–,–
O=C1CC(c2ccc(C(=O)O)cc2)c2ncn(-c3ccc(Cl)cc3)c2N1 (stereo not given),15.7 µM and 12.4 µM,–,–
NC(=O)c1ccc(N2CCCCC2)c(NC(=O)c2ccc(F)cc2Cl)c1,71.9 µM and 52.6 µM,–,–
Cn1ccnc1Sc1ccc(N)cn1,> 100 µM,–,–
O=C(NC[C@H]1CCCC[C@H]1O)c1ccc2nc(-c3ccco3)[nH]c2c1,21 µM and 25.5 µM,–,–

Compound,IC50 (Histidine--tRNA ligase),IC50 [1] [µM],IC50 [2] [µM]
CN1CCCN(C(=O)c2nc3c(s2)CCCN3CC2CC2)CC1,77.9 µM and 55.6 µM,–,–
CCOc1nnc(CNC2CCCN(c3ccc(C)nn3)C2)s1 (stereo not given),> 100 µM and 94.7 µM,–,–
CN1C(=O)[C@H]2CC[C@@H]1CN(C(=O)Nc1cccc3ccccc13)C2,55.3 µM and 43.3 µM,–,–
O=C1CC2(CCN(Cc3ccc4cccc(O)c4n3)CC2)CN1,46.2 µM and 45.6 µM,–,–
Cc1nc(N2CCCC2)nc2c1CCN(C(=O)C1CCC1)CC2,> 100 µM,–,–
Cn1nc2c(cc1=O)CN(CC(=O)Nc1cc(C(C)(C)C)no1)CC2,> 100 µM,–,–
Cc1ccc(C)c(OC(C)C(=O)NCCNc2cccnc2)c1 (stereo not given),23.4 µM and 28.9 µM,–,–
COc1cccn(CC(=O)N(C)CCCOc2c(C)cccc2C)c1=O,> 100 µM,–,–
FC(F)(F)c1ccc(-c2cc(NC3CCNCC3)nc3[nH]ccc23)nc1,29.3 µM and 30.2 µM,–,–
CC(=O)NCC(=O)N1Cc2nccn2CC(COc2cccnc2)C1 (stereo not given),> 100 µM,–,–
CC(=O)Nc1ccc2nc(-c3nccn3C[C@@H]3CCCO3)ccc2c1,> 100 µM and 85.4 µM,–,–
Cc1nonc1CN(C)c1nc(-c2cccnc2)nc2c1CCNC2,15.1 µM and 18.7 µM,–,–
COCCOc1ccccc1C(=O)N1CCCCC1c1nccs1 (stereo not given),51.1 µM and 64.2 µM,–,–
CCCn1nc2c(cc1=O)CN(CCCN1CCCC1=O)CC2,48.6 µM and 55.3 µM,–,–
Cc1cc(N2CCC(Cc3ccccc3)CC2)nc(-c2ccncc2)n1,25 µM and 18.4 µM,–,–
CC(C)c1nn(C)c(N(C)C)c1CNCc1ccccc1CN(C)C,> 100 µM,–,–
Cn1cccc(NC(=O)NCCc2cccc(O)c2)c1=O,15.5 µM and 13 µM,–,–
CN(C)[C@@H]1C[C@@H](CO)N(C(=O)Nc2ccc(SC(F)(F)F)cc2)C1,> 100 µM,–,–
COCCN1CCCC(C)(c2cc(O)[nH]n2)C1 (stereo not given),> 100 µM,–,–
Cc1noc(C)c1CN1CCc2nn(C(C)C)c(=O)cc2C1,86 µM and > 100 µM,–,–
CC(C)c1cc(N2CCC(C(C)N3CCCC3)CC2)n2nccc2n1 (stereo not given),34.3 µM and 31.4 µM,–,–
Cc1cc(C(=O)Nc2cccn(Cc3ccc(F)cc3)c2=O)on1,12.9 µM and 11.3 µM,–,–
Cc1noc(C)c1CNc1c(N2CCCC2)cccc1N1CCCC1,> 100 µM,–,–
CCn1nc2c(cc1=O)CN(c1nc3ccccc3s1)CC2,62.6 µM and 73.7 µM,–,–
c1ccc(-n2ncc(CNCC3CCCN3c3cccnn3)n2)cc1 (stereo not given),22.3 µM and 27.2 µM,–,–
Cn1nc2c(cc1=O)CN(CC(=O)Nc1nccs1)CC2,> 100 µM,–,–
